Measured values: ChEMBL document CHEMBL1201862, “PubChem BioAssay data set” (2004)
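All cell lines were grown in 96-well plates and treated with compound for 48 hours. GI50 marks 50% less growth.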 The source made the active and inactive calls. No stated cut-off is given here; in the data, active = GI50 up to about 1.1 µM and inactive = higher. Starred links: 1 amine or outer side, 2 acyl side, 3 side chain; linkers in the order of their positions; H or OH if unused. Non-standard residues stand in square brackets, D forms with d. Residues, ends and D or L forms follow the SMILES beside them. X35 = C=CCC(O[*:1])C(=O)[*:2]; NMeV = CN[CH](C(=O)O)C(C)C; NMeA = CN[CH](C)C(=O)O; βAla = NCCC(=O)O

Experiments:
Experiment in all cases: NCI tumour cell line growth inhibition, 48 h
[1] = tested on: 786-0
[2] = tested on: A549
[3] = tested on: ACHN
[4] = tested on: BT-549
[5] = tested on: CAKI-1
[6] = tested on: CCRF-CEM
[7] = tested on: COLO 205
[8] = tested on: DU-145
[9] = tested on: EKVX
[10] = tested on: HCC 2998
[11] = tested on: HCT-116
[12] = tested on: HCT-15
[13] = tested on: HL-60
[14] = tested on: HOP-62
[15] = tested on: HOP-92
[16] = tested on: HT-29
[17] = tested on: Hs-578T
[18] = tested on: IGROV-1
[19] = tested on: KM12
[20] = tested on: LOX IMVI
[21] = tested on: M14
[22] = tested on: MCF7
[23] = tested on: MDA-MB-231
[24] = tested on: MDA-MB-435
[25] = tested on: MDA-N
[26] = tested on: MOLT-4
[27] = tested on: NCI-H23
[28] = tested on: NCI-H460
[29] = tested on: NCI-H522
[30] = tested on: NCI/ADR-RES
[31] = tested on: OVCAR-3
[32] = tested on: OVCAR-4
[33] = tested on: OVCAR-5
[34] = tested on: OVCAR-8
[35] = tested on: PC-3
[36] = tested on: RPMI-8226
[37] = tested on: SF-268
[38] = tested on: SF-295
[39] = tested on: SF-539
[40] = tested on: SK-MEL-28
[41] = tested on: SK-MEL-2
[42] = tested on: SK-MEL-5
[43] = tested on: SN12C
[44] = tested on: SNB-19
[45] = tested on: SNB-75
[46] = tested on: SR
[47] = tested on: SW-620
[48] = tested on: T47D
[49] = tested on: TK-10
[50] = tested on: U-251
[51] = tested on: UACC-257
[52] = tested on: UACC-62
[53] = tested on: UO-31

C=CCC1OC(=O)CCNC(=O)C(C)N(C)C(=O)C(C(C)C)N(C)C(=O)C(C(C)CC)NC(=O)C2CCCN2C1=O (stereo not drawn) (cyclo([X35]PI[NMeV][NMeA][βAla]); configuration not given here)
GI50 [1]: 4.61 µM (inactive)
GI50 [2]: 9.84 µM (inactive)
GI50 [3]: 18.4 µM (inactive)
GI50 [4]: 32 µM (inactive)
GI50 [5]: 81.5 µM (inactive)
GI50 [6]: 3.1 µM (inactive)
GI50 [7]: > 100 µM (inactive)
GI50 [8]: 44.9 µM (inactive)
GI50 [9]: 3.23 µM (inactive)
GI50 [10]: 2.25 µM (inactive)
GI50 [11]: 3.68 µM (inactive)
GI50 [12]: 23.2 µM
GI50 [13]: 2.56 µM (inactive)
GI50 [14]: 10.2 µM (inactive)
GI50 [15]: 21.7 µM (inactive)
GI50 [16]: 3.91 µM (inactive)
GI50 [17]: 91.6 µM (inactive)
GI50 [18]: 7.06 µM (inactive)
GI50 [19]: 10.8 µM (inactive)
GI50 [20]: 1.85 µM (inactive)
GI50 [21]: 30.5 µM (inactive)
GI50 [22]: > 100 µM (inactive)
GI50 [23]: 1.62 µM (inactive)
GI50 [24]: 4.22 µM (inactive)
GI50 [25]: > 100 µM (inactive)
GI50 [26]: 2.11 µM (inactive)
GI50 [27]: 33.2 µM (inactive)
GI50 [28]: 3.66 µM (inactive)
GI50 [29]: 16 µM (inactive)
GI50 [30]: > 100 µM (inactive)
GI50 [31]: 2.16 µM (inactive)
GI50 [32]: 66.8 µM (inactive)
GI50 [33]: > 100 µM (inactive)
GI50 [34]: 7.89 µM (inactive)
GI50 [35]: 5.85 µM (inactive)
GI50 [36]: 2.62 µM (inactive)
GI50 [37]: 81.1 µM (inactive)
GI50 [38]: 4.08 µM (inactive)
GI50 [39]: 45.1 µM (inactive)
GI50 [40]: 42.7 µM (inactive)
GI50 [41]: 9.08 µM (inactive)
GI50 [42]: 2.44 µM (inactive)
GI50 [43]: > 100 µM (inactive)
GI50 [44]: > 100 µM (inactive)
GI50 [45]: 1.25 µM (inactive)
GI50 [46]: 2.58 µM (inactive)
GI50 [47]: 6.64 µM (inactive)
GI50 [48]: 20.8 µM (inactive)
GI50 [49]: > 100 µM (inactive)
GI50 [50]: 49.5 µM (inactive)
GI50 [51]: 9.44 µM (inactive)
GI50 [52]: 2.68 µM (inactive)
GI50 [53]: 22.8 µM (inactive)
